{
  "source": "ChEMBL document CHEMBL5543174",
  "about": "“A Nonbactericidal Anionic Antimicrobial Peptide Provides Prophylactic and Therapeutic Efficacies against Bacterial Infections in Mice by Immunomodulatory-Antithrombotic Duality” (J Med Chem, 2024)",
  "key": {"Staphylococcus aureus [1]": {"system": "Staphylococcus aureus", "test": "Antibacterial activity against Staphylococcus aureus ATCC 25923 infected in C57BL/6 mouse assessed as reduction in bacterial load at 10 mg/kg,ip administrated 5 hrs after bacterial infection", "assay_type": "functional, organism-based"}, "Mus musculus [2]": {"system": "Mus musculus", "test": "Immunomodulatory activity in cyclophosphamide immunosuppressed C57BL/6 mouse with neutrophil depletion model assessed as change in T-lymphocytes in peritoneal lavage at 10 mg/kg,ip administration measured after 5 to 24 hrs by flow cytometry", "assay_type": "functional, organism-based", "conditions": "time 5-24 hrs"}, "Mus musculus [3]": {"system": "Mus musculus", "test": "Anticoagulation activity in mouse infected with Methicillin-resistant Staphylococcus aureus assessed as increase in plasma AT-III expression at 10 mg/kg,ip administrated 5 hrs after bacterial infection measured after 24 hrs by ELISA", "assay_type": "functional, organism-based", "conditions": "time 19.0 hrs"}, "Escherichia coli [4]": {"system": "Escherichia coli", "test": "Antibacterial activity against Carbapenem-resistant Escherichia coli infected in C57BL/6 mouse assessed as reduction in IL-1beta level in peritoneal fluid at 10 mg/kg,ip administrated 5 hrs after bacterial infection measured after 24 hrs by ELISA", "assay_type": "functional, organism-based", "conditions": "time 19.0 hrs"}, "Candida albicans": {"system": "Candida albicans", "test": "Antimicrobial activity against Candida albicans ATCC 2002 assessed as reduction in metabolic activity at < 200 ug/ml incubated for 1 to 4 hrs by CCK-8 assay", "assay_type": "functional, organism-based", "conditions": "dose < 200.0 µg/ml, time 1-4 hrs"}, "Mus musculus [5]": {"system": "Mus musculus", "test": "Induction of chemotaxis in C57BL/6 mouse assessed as upregulation of CXCL1 expression in peritoneal lavage at 10 mg/kg,ip administration measured at 5 to 24 hrs by ELISA", "assay_type": "functional, organism-based", "conditions": "time 5-24 hrs"}, "Mus musculus [6]": {"system": "Mus musculus", "test": "Immunomodulatory activity in clodronate liposome immunosuppressed C57BL/6 mouse with neutrophil depletion model assessed as change in T-lymphocytes in peritoneal lavage at 10 mg/kg,ip administration measured after 5 to 24 hrs by flow cytometry", "assay_type": "functional, organism-based", "conditions": "time 5-24 hrs"}, "Peritoneal macrophage [7]": {"system": "Peritoneal macrophage", "test": "Immunoregulatory activity in mouse Peritoneal macrophage assessed as upregulation of IkappaBalpha phosphorylation incubated for 1 hr by Western blotting analysis", "assay_type": "functional, cell-based"}, "Mus musculus [8]": {"system": "Mus musculus", "test": "Immunomodulatory activity in cyclophosphamide immunosuppressed C57BL/6 mouse with neutrophil depletion model assessed as increase in number of neutrophil in peritoneal lavage at 10 mg/kg,ip administration measured after 12 hrs by flow cytometry", "assay_type": "functional, organism-based"}, "Staphylococcus aureus [9]": {"system": "Staphylococcus aureus", "test": "Antibacterial activity against Staphylococcus aureus ATCC 25923 infected in C57BL/6 mouse assessed as reduction in IL-1beta level in serum at 10 mg/kg,ip administrated 5 hrs after bacterial infection measured after 24 hrs by ELISA", "assay_type": "functional, organism-based", "conditions": "time 19.0 hrs"}, "Plasma [10]": {"system": "Plasma", "test": "Anticoagulation activity in human platelet poor plasma assessed as elongation of activated partial thromboplastin time at 100 ug/ml measured after 5 mins", "assay_type": "functional, cell-free", "conditions": "dose 100.0 µg/ml"}, "Mus musculus [11]": {"system": "Mus musculus", "test": "Anticoagulation activity in mouse infected with Carbapenem-resistant Escherichia coli assessed as increase in plasma APC expression at 10 mg/kg,ip administrated 5 hrs after bacterial infection measured after 24 hrs by ELISA", "assay_type": "functional, organism-based", "conditions": "time 19.0 hrs"}, "Staphylococcus aureus [12]": {"system": "Staphylococcus aureus", "test": "Antimicrobial activity against Methicillin-resistant Staphylococcus aureus assessed as inhibition of microbial growth at <= 200 ug/ml incubated for 18 hrs by micro-broth dilution method", "assay_type": "functional, organism-based", "conditions": "dose <= 200.0 µg/ml"}, "Peritoneal macrophage [13]": {"system": "Peritoneal macrophage", "test": "Induction of chemotaxis in mouse Peritoneal macrophage assessed as increase in macrophage migration incubated for 8 hrs by crystal violet staining based indirect transwell assay", "assay_type": "functional, cell-based"}, "Peritoneal macrophage [14]": {"system": "Peritoneal macrophage", "test": "Immunomodulatory activity in mouse Peritoneal macrophage assessed as decrease in LTA-induced IL-1beta production at 25 to 100 ug/ml incubated for 6 hrs by ELISA", "assay_type": "functional, cell-based", "conditions": "dose 25-100 µg/ml"}, "Mus musculus [15]": {"system": "Mus musculus", "test": "Anticoagulation activity in mouse infected with Methicillin-resistant Staphylococcus aureus assessed as increase in plasma AT-III expression at 10 mg/kg,ip pre-administrated 5 hrs before bacterial infection measured after 24 hrs by ELISA", "assay_type": "functional, organism-based", "conditions": "time 29.0 hrs"}, "Neutrophil [16]": {"system": "Neutrophil", "test": "Induction of phagocytosis in mouse bone marrow derived neutrophil cultured with CFSE-labeled Methicillin-resistant Staphylococcus aureus incubated for 1.5 hrs followed by bacterial exposure for 1 hr by flow cytometry", "assay_type": "functional, cell-based", "conditions": "time 2.5 hrs"}, "Enterococcus faecalis": {"system": "Enterococcus faecalis", "test": "Antimicrobial activity against Enterococcus faecalis ATCC 29212 assessed as inhibition of microbial growth at <= 200 ug/ml incubated for 18 hrs by micro-broth dilution method", "assay_type": "functional, organism-based", "conditions": "dose <= 200.0 µg/ml"}, "Peritoneal macrophage [17]": {"system": "Peritoneal macrophage", "test": "Induction of nitric oxide production in mouse Peritoneal macrophage incubated for 6 hrs by Griess reagent based ELISA", "assay_type": "functional, cell-based"}, "Plasma [18]": {"system": "Plasma", "test": "Anticoagulation activity in human platelet poor plasma assessed as elongation of prothrombin time at 100 ug/ml measured after 5 mins", "assay_type": "functional, cell-free", "conditions": "dose 100.0 µg/ml"}, "Neutrophil [19]": {"system": "Neutrophil", "test": "Induction of chemotaxis in mouse bone marrow derived neutrophil assessed as increase in neutrophil migration at 100 ug/ml preincubated with PTX for 30 mins followed by compound addition measured after 8 hrs by crystal violet staining based indirect transwell assay", "assay_type": "functional, cell-based", "conditions": "dose 100.0 µg/ml"}, "Escherichia coli [20]": {"system": "Escherichia coli", "test": "Antibacterial activity against Carbapenem-resistant Escherichia coli infected in C57BL/6 mouse assessed as reduction in IL-6 level in peritoneal fluid at 10 mg/kg,ip pre-administrated 5 hrs before bacterial infection measured after 24 hrs by ELISA", "assay_type": "functional, organism-based", "conditions": "time 29.0 hrs"}, "Mus musculus [21]": {"system": "Mus musculus", "test": "Anticoagulation activity in mouse infected with Methicillin-resistant Staphylococcus aureus assessed as increase in plasma APC expression at 10 mg/kg,ip pre-administrated 5 hrs before bacterial infection measured after 24 hrs by ELISA", "assay_type": "functional, organism-based", "conditions": "time 29.0 hrs"}, "Escherichia coli [22]": {"system": "Escherichia coli", "test": "Antibacterial activity against Escherichia coli ATCC 25922 infected in C57BL/6 mouse assessed as reduction in TNF-alpha level in serum at 10 mg/kg,ip pre-administrated 5 hrs before bacterial infection measured after 24 hrs by ELISA", "assay_type": "functional, organism-based", "conditions": "time 29.0 hrs"}, "Staphylococcus aureus [23]": {"system": "Staphylococcus aureus", "test": "Antimicrobial activity against Methicillin-resistant Staphylococcus aureus assessed as reduction in metabolic activity at < 200 ug/ml incubated for 1 to 4 hrs by CCK-8 assay", "assay_type": "functional, organism-based", "conditions": "dose < 200.0 µg/ml, time 1-4 hrs"}, "Staphylococcus aureus [24]": {"system": "Staphylococcus aureus", "test": "Antibacterial activity against Methicillin-resistant Staphylococcus aureus infected in C57BL/6 mouse assessed as reduction in IL-6 level in serum at 10 mg/kg,ip administrated 5 hrs after bacterial infection measured after 24 hrs by ELISA", "assay_type": "functional, organism-based", "conditions": "time 19.0 hrs"}, "Mus musculus [25]": {"system": "Mus musculus", "test": "Antithrombotic activity in C57BL/6 mouse tail transection model assessed as increase in tail bleeding time at 30 mg/kg,SC administration", "assay_type": "functional, organism-based"}, "Staphylococcus aureus [26]": {"system": "Staphylococcus aureus", "test": "Antibacterial activity against Staphylococcus aureus ATCC 25923 infected in C57BL/6 mouse assessed as reduction in IL-6 level in serum at 10 mg/kg,ip administrated 5 hrs after bacterial infection measured after 24 hrs by ELISA", "assay_type": "functional, organism-based", "conditions": "time 19.0 hrs"}, "Staphylococcus aureus [27]": {"system": "Staphylococcus aureus", "test": "Antibacterial activity against Staphylococcus aureus ATCC 25923 infected in C57BL/6 mouse assessed as increase in survival rate at 10 mg/kg,ip administrated 5 hrs after bacterial infection measured after 7 days", "assay_type": "functional, organism-based", "conditions": "time 7.0 day"}, "Escherichia coli [28]": {"system": "Escherichia coli", "test": "Antibacterial activity against Carbapenem-resistant Escherichia coli infected in C57BL/6 mouse with cyclophosphamide-induced neutrophil depletion model assessed as decrease in bacterial burden in peritoneal cavity at 10 mg/kg,ip administrated 5 hrs after bacterial infection measured after 24 hrs", "assay_type": "functional, organism-based", "conditions": "time 19.0 hrs"}, "Mus musculus [29]": {"system": "Mus musculus", "test": "Antithrombotic activity in BALB/c mouse dorsal skin defect model assessed as increase in skin bleeding time at 30 mg/kg,SC administration", "assay_type": "functional, organism-based"}, "Escherichia coli [30]": {"system": "Escherichia coli", "test": "Antibacterial activity against Carbapenem-resistant Escherichia coli infected in C57BL/6 mouse assessed as reduction in IL-1beta level in serum at 10 mg/kg,ip pre-administrated 5 hrs before bacterial infection measured after 24 hrs by ELISA", "assay_type": "functional, organism-based", "conditions": "time 29.0 hrs"}},
  "note": "Activity calls are given as the source filed them. The rule behind the calls is not given here.",
  "data": [
    {"smiles": "CC[C@H](C)[C@H](NC(=O)[C@@H]1CSSC[C@H](NC(=O)[C@H](CCC(=O)O)NC(=O)[C@@H](NC(=O)[C@H](CCCCN)NC(=O)[C@H](Cc2c[nH]cn2)NC(=O)[C@@H](NC(=O)[C@H](CCCCN)NC(=O)[C@H](CCC(=O)O)NC(=O)[C@H](C)NC(=O)[C@H](CCC(=O)O)NC(=O)[C@H](CCC(=O)O)NC(=O)[C@H](CCC(=O)O)NC(=O)[C@H](C)N)[C@@H](C)O)[C@@H](C)O)C(=O)N[C@@H](CC(C)C)C(=O)N[C@@H](CCC(=O)O)C(=O)N1)C(=O)N[C@@H](Cc1ccccc1)C(=O)N[C@H](C(=O)N[C@@H](CC(C)C)C(=O)N[C@@H](CC(C)C)C(=O)N1CCC[C@H]1C(=O)N1CCC[C@@H]1C(=O)N[C@H](C)C(=O)O)[C@@H](C)O", "values": [
      {"measurement": "Activity", "setting": "Staphylococcus aureus [1]", "result": "Active"},
      {"measurement": "Activity", "setting": "Mus musculus [2]", "result": "inactive"},
      {"measurement": "Activity", "setting": "Mus musculus [3]", "result": "Active"},
      {"measurement": "Activity", "setting": "Escherichia coli [4]", "result": "Active"},
      {"measurement": "Activity", "setting": "Candida albicans", "result": "inactive"},
      {"measurement": "Activity", "setting": "Mus musculus [5]", "result": "inactive"},
      {"measurement": "Activity", "setting": "Mus musculus [6]", "result": "inactive"},
      {"measurement": "Activity", "setting": "Peritoneal macrophage [7]", "result": "Dose-Dependent Effect"},
      {"measurement": "Activity", "setting": "Mus musculus [8]", "result": "Active"},
      {"measurement": "Activity", "setting": "Staphylococcus aureus [9]", "result": "Active"},
      {"measurement": "Activity", "setting": "Plasma [10]", "result": "inactive"},
      {"measurement": "Activity", "setting": "Mus musculus [11]", "result": "Active"},
      {"measurement": "Activity", "setting": "Staphylococcus aureus [12]", "result": "inactive"},
      {"measurement": "Activity", "setting": "Peritoneal macrophage [13]", "result": "Dose-Dependent Effect"},
      {"measurement": "Activity", "setting": "Peritoneal macrophage [14]", "result": "inactive"},
      {"measurement": "Activity", "setting": "Mus musculus [15]", "result": "Active"},
      {"measurement": "Activity", "setting": "Neutrophil [16]", "result": "Dose-Dependent Effect"},
      {"measurement": "Activity", "setting": "Enterococcus faecalis", "result": "inactive"},
      {"measurement": "Activity", "setting": "Peritoneal macrophage [17]", "result": "Dose-Dependent Effect"},
      {"measurement": "Activity", "setting": "Plasma [18]", "result": "inactive"},
      {"measurement": "Activity", "setting": "Neutrophil [19]", "result": "inactive"},
      {"measurement": "Activity", "setting": "Escherichia coli [20]", "result": "Active"},
      {"measurement": "Activity", "setting": "Mus musculus [21]", "result": "Active"},
      {"measurement": "Activity", "setting": "Escherichia coli [22]", "result": "Active"},
      {"measurement": "Activity", "setting": "Staphylococcus aureus [23]", "result": "inactive"},
      {"measurement": "Activity", "setting": "Staphylococcus aureus [24]", "result": "Active"},
      {"measurement": "Activity", "setting": "Mus musculus [25]", "result": "inactive"},
      {"measurement": "Activity", "setting": "Staphylococcus aureus [26]", "result": "Active"},
      {"measurement": "Activity", "setting": "Staphylococcus aureus [27]", "result": "Active"},
      {"measurement": "Activity", "setting": "Escherichia coli [28]", "result": "inactive"},
      {"measurement": "Activity", "setting": "Mus musculus [29]", "result": "inactive"},
      {"measurement": "Activity", "setting": "Escherichia coli [30]", "result": "Active"}
    ]}
  ]
}
